According to PubChem BioAssay (NCI):
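Values below derive from 48-hour exposures of cells grown in 96-well plates, with endpoints linearly interpolated between the two concentrations bracketing the appropriate inhibition level. Here, GI50 denotes the concentration required for 50% inhibition of growth. Definition used: TGI = concentration required for complete inhibition of growth.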

Assays:
Assay in all cases: NCI anticancer screen, dose series, 48 h
[1] = tested on: COLO 205 colon
[2] = tested on: SR leukemia
[3] = tested on: HL-60(TB) leukemia
[4] = tested on: SN12C renal
[5] = tested on: OVCAR-4 ovarian
[6] = tested on: SF-295 CNS
[7] = tested on: KM12 colon
[8] = tested on: A549 NSCLC
[9] = tested on: RXF 393 renal
[10] = tested on: NCI/ADR-RES ovarian

Row | SMILES | TGI [1] [µM] | TGI [2] [µM] | TGI [3] [µM] | TGI [4] [µM] | TGI [5] [µM] | TGI [6] [µM] | TGI [7] [µM] | TGI [8] [µM] | TGI [9] [µM] | GI50 [2] [µM] | GI50 [3] [µM] | GI50 [4] [µM] | GI50 [10] [µM] | TGI [10] [µM] | GI50 [6] [µM] | GI50 [7] [µM] | GI50 [8] [µM] | GI50 [9] [µM] | GI50 [1] [µM] | GI50 [5] [µM]
1 | COc1ccc(Cn2c(C)nc3c2C(=O)c2ccccc2C3=O)cc1 | 22.6 | 10.4 | 22.2 | > 75 | 64.1 | 58.2 | 26.7 | 36.1 | 63.4 | – | – | – | – | – | – | – | – | – | – | –
2 | O=C(O)c1ccccc1Cc1ccco1 | > 100 | > 100 | – | > 100 | > 100 | > 100 | > 100 | > 100 | > 100 | – | – | – | – | – | – | – | – | – | – | –
3 | COc1cc(-c2nn3c(/C=C4/C(=O)Nc5ccccc54)c(-c4ccc(C)cc4)nc3s2)cc(OC)c1OC | – | > 100 | > 100 | > 100 | – | 31.1 | > 100 | > 100 | 14.7 | 2.35 | > 100 | 5.26 | 3.05 | > 100 | 5.04 | > 100 | 2.12 | 2.24 | – | –
4 | O=[As](O)(O)c1ccc(NCc2ccccc2)cc1 | > 100 | > 100 | – | > 100 | > 100 | > 100 | > 100 | > 100 | > 100 | – | – | – | – | > 100 | – | – | – | – | – | –
5 | C=CC(=O)Nc1ccc(Nc2nccc(-c3ccc(N4CCCC4)c(C#N)c3)n2)cc1 | > 25 | – | > 25 | > 25 | > 25 | > 25 | > 25 | > 25 | 1.71 | – | 4.88 | 15.8 | > 25 | > 25 | 9.44 | > 25 | 11 | 0.545 | > 25 | 20.1
6 | N=C(c1ccccc1)N(c1ccccc1)c1ccccc1 | > 100 | > 100 | > 100 | > 100 | > 100 | > 100 | > 100 | > 100 | > 100 | – | – | – | – | – | – | – | – | – | – | –
7 | Nc1nc(CCC(=O)Nc2cccc(C(F)(F)F)c2)cc(-c2cccc3ccccc23)n1 | > 100 | > 100 | > 100 | > 100 | > 100 | > 100 | > 100 | > 100 | > 100 | – | – | – | – | – | – | – | – | – | – | –
8 | FC(F)(F)C1(Cl)C(c2ccccc2)=C1c1ccccc1 | 30.3 | > 100 | 24.4 | 29.3 | 26.6 | 28.1 | 29 | 28.9 | 26.6 | – | – | – | – | – | – | – | – | – | – | –
9 | C1OCC2S[C@@H]3COCO[C@@H]3C2O1 (stereo not given in full) | > 100 | > 100 | > 100 | > 100 | > 100 | > 100 | > 100 | > 100 | > 100 | – | – | – | – | – | – | – | – | – | – | –
10 | COc1cc(/C(Cl)=C/C=C/C(=O)c2c(C)[n+]([O-])c3ccc(Cl)cc3[n+]2[O-])cc(OC)c1OC | 28.2 | 4.72 | – | > 50 | > 50 | 20.5 | > 50 | – | 28 | 1.47 | – | 9.1 | 1.97 | > 50 | 2.77 | 5.07 | – | 9.15 | 10 | 5.07
11 | CCCCCCCCCCCOC(=S)NC(C)C | – | 44.3 | 39.1 | 30.1 | 52 | 40.7 | 37.7 | 51.1 | 42.9 | – | – | – | – | – | – | – | – | – | – | –
12 | C1=C(c2ccccc2)CN(c2ccccc2)OC1 | > 100 | > 100 | > 100 | > 100 | – | – | > 100 | > 100 | > 100 | – | – | – | – | – | – | – | – | – | – | –
13 | O=C1OC(=O)c2c1c(-c1ccccc1)cn2-c1ccc(Cl)cc1 | 37.5 | > 100 | > 100 | > 100 | – | > 100 | > 100 | > 100 | – | – | – | – | – | – | – | – | – | – | – | –
14 | C#CCC[C@@H]1O[C@@]1(C)CC/C=C(\C)CC/C=C/C=O | > 100 | > 100 | 60.8 | > 100 | – | 79.4 | > 100 | > 100 | > 100 | – | – | – | – | – | – | – | – | – | – | –
15 | COc1ccc(/C(=N/NC(N)=O)C2(O)C(=O)Nc3ccc([N+](=O)[O-])cc32)cc1 (stereo not given) | 53.4 | 47.1 | – | > 10 | 27.1 | – | 49.5 | > 100 | – | – | – | – | – | – | – | – | – | – | – | –
16 | CCOc1ccccc1NC(=O)CCC(=O)OC | > 100 | > 100 | > 78.8 | > 100 | > 100 | > 100 | > 100 | > 100 | > 100 | – | – | – | – | – | – | – | – | – | – | –

Row | SMILES | TGI [1] [µM] | TGI [2] [µM] | TGI [3] [µM] | TGI [4] [µM] | TGI [5] [µM] | TGI [6] [µM] | TGI [7] [µM] | TGI [8] [µM] | TGI [9] [µM] | GI50 [2] [µM] | GI50 [3] [µM] | GI50 [4] [µM] | GI50 [10] [µM] | TGI [10] [µM] | GI50 [6] [µM] | GI50 [7] [µM] | GI50 [8] [µM] | GI50 [9] [µM] | GI50 [1] [µM] | GI50 [5] [µM]
17 | CC1=CCC[C@@]2(C)C(CC[C@@H]2C(C)/C=C/C(C)C)c2ccc(cc2C(=O)O)C[C@@H](O)CC1 (stereo not given in full) | – | 33 | 31.2 | 30.4 | 25.6 | 21.7 | 24.8 | 20.3 | 30 | – | – | – | – | – | – | – | – | – | – | –
18 | CC1=CC2CC(C)=C(CC[C@]3(C)CC[C@H]([C@@H](C)C(=O)O)OO3)C(C)(C)C2CC1 (stereo not given in full) | 1.36 | 0.382 | 0.106 | 1.9 | 0.971 | 2.67 | 0.316 | 1.06 | 1.09 | – | – | – | – | – | – | – | – | – | – | –
19 | C[N+]1(C)CCCC1C(=O)[O-] (stereo not given) | > 100 | > 100 | > 100 | > 100 | > 100 | > 100 | > 100 | > 100 | > 100 | – | – | – | – | – | – | – | – | – | – | –
20 | Cn1cc(-c2nonc2-c2c[nH]c3ccccc23)c2ccccc21 | 10.5 | – | 0.731 | 12.1 | 17 | 2.97 | 8.74 | 22.1 | 5.7 | – | 0.277 | 0.477 | 0.378 | 14 | 0.352 | 0.396 | 0.728 | 0.378 | 0.465 | 1.52
21 | CO/C(=N\N=C\c1cc(OC)ccc1OC)c1ccncc1 | > 10 | > 10 | > 10 | > 10 | – | > 10 | > 10 | > 10 | > 10 | – | – | – | – | > 10 | – | – | – | – | – | –
22 | CC(=O)N1CCN(C2=Nc3ccccc3CO2)C1=S | > 100 | 68.4 | > 100 | > 100 | > 100 | > 100 | > 100 | > 100 | – | 29.3 | 59.7 | > 100 | > 100 | > 100 | 43.1 | > 100 | > 100 | – | > 100 | 65.3
23 | O=C(Nc1c(O)[nH]c(=S)[nH]c1=O)c1ccccn1 | > 100 | > 100 | > 100 | > 100 | > 100 | > 100 | > 100 | > 100 | – | – | – | – | – | – | – | – | – | – | – | –
24 | C=C(Cn1c(=O)c2ccccc2c2ccccc21)c1ccc(C(=O)Nc2ccccc2N)cc1 | > 100 | – | – | > 100 | > 100 | > 100 | > 100 | > 100 | > 68.5 | – | 0.188 | 11.3 | 3.78 | > 57.8 | > 79.7 | 25.6 | > 48.3 | 5.21 | 45.1 | 5.22
25 | COc1ccc(C#Cc2ccccc2C#CCCCCO)cc1 | 33.4 | – | 44.7 | 23.7 | 28.1 | 34.6 | 33.4 | 33.7 | 33.6 | – | 23.7 | 11 | 24.4 | 48.4 | 18.7 | 17.7 | 18.2 | 16 | 17.6 | 11.2
26 | CC1CC2C3CC(F)C4=CC(=O)C=CC4(C)C3(F)C(O)CC2(C)C1(O)C(=O)COC(=O)C(C)(C)C (stereo not given) | > 100 | > 100 | > 100 | – | > 100 | > 100 | > 100 | > 100 | 76.6 | – | – | – | – | – | – | – | – | – | – | –
27 | S=c1sc2c(Cl)ncnc2n1-c1ccccc1 | 29 | 9.36 | – | 29.4 | 33.6 | 25.5 | 31 | 67.8 | 28.9 | – | – | – | – | – | – | – | – | – | – | –
28 | CCN(CC)CCNC(=O)c1ccccc1NC(=O)C(=O)Nc1ccccc1C(=O)NCCN(CC)CC | 35.8 | 47.6 | 32.4 | > 100 | > 100 | > 100 | > 100 | > 100 | – | – | – | – | – | – | – | – | – | – | – | –
29 | O=[N+]([O-])c1ccc(Nc2ccccc2-c2ccccc2)c2nonc12 | 45.2 | – | 51.1 | 28.2 | > 100 | 29.7 | 32.5 | > 86.8 | 28.7 | – | 17.8 | 12.4 | 13.6 | 34.7 | 11.7 | 13.9 | 16.7 | 13.7 | 18.6 | 9.5
30 | CC(=O)OCC1OC(Nc2[nH]c(=O)n(C)c(=O)c2-c2csc(N)n2)C(OC(C)=O)C(OC(C)=O)C1OC(C)=O (stereo not given) | > 100 | > 100 | > 100 | > 100 | > 100 | > 100 | > 100 | > 100 | – | – | – | – | – | – | – | – | – | – | – | –
31 | Nc1ncnc2c1ncn2C1OC(COP(=O)(O)CP(=O)(O)O)C(O)C1O (stereo not given) | > 100 | > 100 | > 100 | > 100 | – | > 100 | > 100 | > 100 | > 100 | – | – | – | – | > 100 | – | – | – | – | – | –
